Measurements reported in patent US10668039B2, “Methods for treatment of adenoid cystic carcinoma” (THE CHILDREN'S MEDICAL CENTER CORPORATION, priority 2016, dated 2020).
“Also recorded” adds a separate entry of the source.

Columns and labels:
MYB = assay: ChIP-seq of short-term ACC x9 primagrafts, MYB binding; format: in vivo, human; details: 3 days
Text: (§1) Primagraft experiments: For in vivo drug testing, ACC tumor fragments from host animals were implanted subcutaneously into the flank of nude mice (CRL: ATH/NU). Once tumors reached 125-250 mm3, mice were randomized to receive vehicle or drug diluted in 10:90 DMSO:10% hydroxypropyl-beta-cyclodextrin orally until controls reached a tumor volume endpoint of 1-2 cm3 (4-9 mice per group: x5M1 and x6, 4 treated vs. 9 vehicle controls; x9, 4 treated vs. 5 vehicle controls; x11, 5 treated vs. 8 vehicle controls). Mice were treated with ATRA (ACC x6 and x11: 4 mg/mL, 0.2 mL flat dose; ACC×9: 3 mg/mL, 0.2 mL flat dose) or isotretinoin (30 mg/mL, 0.2 mL flat dose). Tumor growth was monitored and mice weighed twice weekly and studies ended when final group reached tumor volume endpoint. No statistical methods were employed to determine the sample size, and no blinding of investigators was performed. […]
All ChIP-Seq datasets were aligned to UCSC build version hg19 of the human genome using Bowtie2 (version 2.2.1) with the following parameters: -end-to-end, —NO, -L20. […] ChIP-seq enrichment was determined as described previously in a 5 kb region (as counts per million) centered on the enriched peak regions (n=1,868) of the given MYB datasets. […]

lyz:dsRed positive cells = assay: Confocal imaging of CHT, lyz:dsRed positive cells; format: in vivo, zebrafish; details: 10 μM, treated 48-72 hpf, imaged at 72 hpf
Procedure: Confocal imaging: Double transgenic c-myb:GFP; lyz:dsRed or c-myb:GFP; mpeg1:mCherry embryos from the same clutch were treated between 48-72 hpf (n=4 biological replicates per treatment group) with 10 μM ATRA diluted in E3. Live 72 hpf embryos were embedded in 0.8% low-melting point agarose containing 0.04 mg/mL Tricaine and imaged on a Nikon Eclipe Ti microscope with 20× Plan-Apo DIC N.A. 0.75. CHT cells were counted in Z-stack image projections processed on Imaris software (Bitplane).

[1] = patients, 45 mg/m2 oral dose of ATRA, first day of treatment; cited from earlier work
c-myb = assay: In situ hybridization of whole embryos, c-myb; format: in vivo, zebrafish; details: 10 μM, treated 48-72 hpf, fixed at 72 hpf
Procedure: In situ hybridization: In situ hybridization was done for c-myb as described in North (2007). Wildtype AB zebrafish embryos were treated with RAs in the E3 water at the indicated doses during 48-72 hpf, after which point they were fixed in 4% PFA. Qualitative scoring (number of embryos with altered number of HSCs scored) of c-myb positive cells was conducted by assessing the caudal hematopoietic tissue (CHT) region by the tail.
(§2) In situ hybridization: Wildtype AB embryos from the same clutch were treated between 48-72 hpf with 10 μM retinoic acid agonists diluted in E3, fixed at 72 hpf in 4% paraformaldehyde, and processed as previously described. CHT staining in the embryos was blindly scored as high, medium, or low, and summed across 3 independent experiments as done previously. Representative images were acquired on a Nikon ZMS 18 microscope.

Ki-67 = assay: Immunohistochemistry of ACC primagrafts, Ki-67; format: in vivo, nude mice; details: ACC x6, x9, x11 primagrafts at conclusion of long-term studies
Text: as §1
Immunohistochemistry: Sectioning and staining was carried out by the Dana-Farber/Harvard Cancer Center Specialized Histopathology Core using standard procedures on ACC x6, x9, and x11 samples (from long-term tumor growth inhibition studies). […] Primary antibody was detected using Bond Polymer Refine Detection kit. […] Images (>200 nuclei each) from three different individual primagrafts were blindly quantitated.

1-plastin = assay: In situ hybridization of whole embryos, 1-plastin; format: in vivo, zebrafish; details: 10 μM, treated 48-72 hpf, fixed at 72 hpf
Procedure: as §2

ACC PDX models = assay: ATRA comparison TGI studies in ACC PDX models; format: in vivo; details: ATRA 8 mg/kg to 32 mg/kg; tamibarotene 2 mg/kg
Procedure: The TGI studies in ACC PDX models were repeated in order to compare the original ATRA dose (3 or 4 mg/ml) against a more physiologically relevant dose of ATRA (8 mg/kg) and an alternative retinoid Tamibarotene (originally developed for ATRA-resistant cancer settings, approved in Japan and currently in development at Syros Pharmaceuticals).

Q: Which “enrichment among MYB-bound regions genome-wide” value (MYB) does the source give for `CC(C=CC1=C(C)CCCC1(C)C)=CC=C/C(C)=C/C(=O)O` [ATRA, (E)-3,7-dimethyl-9-(2,6,6-trimethyl-1-cyclo-hexen-1-yl)-2,4,6,8-nonatetraenoic acid] here?
A: reduced enrichment

Q: What about the “lyz:dsRed+ cells in the CHT” value (lyz:dsRed positive cells) of the same compound?
A: no significant difference; also recorded: no significant effect

Q: What about the median plasma concentration [1] of the same compound?
A: approximately 1 μM

Q: What about the “c-myb expression (staining) in the CHT” value (c-myb) of the same compound?
A: significant decrease; also recorded: decreased staining

Q: What about the “proliferation (Ki-67 positive nuclei)” value (Ki-67) of the same compound?
A: no significant effect

Q: What about the “1-plastin expression (staining) in the CHT” value (1-plastin) of the same compound?
A: no significant difference; also recorded: did not decrease staining

Q: What about the “tumor growth inhibition in the PDX studies” value (ACC PDX models) of the same compound?
A: showed tumor growth inhibition
